Data as given in patent US7071206B2, “Agents for treating neurodegenerative disorders” (Medivation, Inc., priority 1995, dated 2006).

Tested on: patients suffering from Alzheimer's disease
Experiment: Clinical trial of dimebon tablets, inventors' scale (E. E. Bukatina et al.; 0 = absence of a symptom, 4 = greatest manifestation)
Assay type: in vivo, human
Details: for mean value of delirium manifestations: 10 patients with delirious symptoms prior to treatment; for mean value of depressive manifestations: 12 patients with depressive manifestations
Description: The test was carried out under the direct supervision by two of the inventors, namely E. E. Bukatina and V. Grigorieva, in 14 patients who agreed to take part in the tests, 13 of whom lived in a boarding house for senile persons and one patient lived with their family.
Alzheimer's disease was diagnosed on the basis of criteria ICD-10 NINCDS ADRDA.
Dimebon in the form of tablets (comprising 10 mg of dimebon, 30 mg of lactose, 5 mg of magnesium stearate was prescribed for oral administration in a dose of 0.02 g three to times a day. The patients living in the boarding house received dimebon for 58 days. A patient (observation 14) who was under outpatient observation continued taking the agent for a month after the completion of the tests.
Before the treatment with dimebon, and at 4 and 8 weeks after treatment the patients were examined according to Hazegawa's scale and the inventors' scale (“Social and Clinical Psychiatry”, 1992, No.4, pp.29–37) which includes the following indexes: (1) orientation in locality, time, immediate surroundings and one's own personality; (2) orientation in space; (3) memory for the past; (4) memory for the present; (5) “life in the past”; (6) (a) articulation, (b) difficulty in finding words, and distortion of words; (c) naming of objects; (d) following instructions; (7) concentration (of attention); (8) an affective sphere; (a) high spirits, (b) low spirits; (9) delirium; (10) hearing hallucinations; (11) visual hallucinations; (12) senile or senile-like confusion (when motion anxiety is accompanied by the revival of the past experience); (13) irritability; (14) anxiety; (15) asthenia; (16) headaches; (17) dizziness; (18) tearfulness; (19) spontaneous activity; (20) elementary self-service; and (21 control of sphincters.
According to the Hazegawa's scale, the 0 score indicates the poorest result; on the contrary, according to the inventors' scale, the 0 score indicates the absence of a symptom 4 score indicates the greatest manifestation thereof. […] Before the therapy was started, the patients had been independently examined by two doctors who used the inventors' scale. The examination during the treatment was carried out by the doctors using both the scales. The evaluation according to all the inventors' scale points during all the tests and their variations during the treatment with dimebon are given in the Appendix.
According to the inventors' scale, the degree of the disturbance if the cognitive functions was determined by a sum of evaluations according to the first 5 scale points reflecting the condition of memory, orientation and relation with the reality. The disturbance of speech was dealt with separately and was determined by a sum of evaluations according to items 6b-6d.
Both absolute evaluations of the signs under investigation (the evaluation prior to treatment is a mean evaluation of the two examinations) and variations in them were analysed in the course of therapy. In doing so, only those changes that were beyond the range of evaluations obtained in two pre-treatment examinations were taken into consideration.
The test results reflected the condition of the patients at the time of the examination. Any changes in the metal state observed in the interval between the tests and disappearing by the moment of examination according to the scale were described in the section “Clinical Observations”.
The statistical data processing was carried out by means of Student's t-test and Fisher's “Fi” criterion.

[1] = after 4 weeks vs two examinations prior to treatment, + improvement, − deterioration
[2] = after 4 weeks, mean of 14 patients

Q: Which results are given for `Cc1ccc2c(c1)c1c(n2CCc2ccc(C)nc2)CCN(C)C1` [No. 10, 2,8-dimethyl-5-[2-(6-methyl-3-pyridyl)ethyl]-2,3,4,5-tetrahydro-1H-pyrido[4,3-b]indole]?
A: Cognitive functions (first 5 scale points): no variations, % (4 weeks): 81.4%; Cognitive functions (first 5 scale points): no variations, abs. (4 weeks): 57; Cognitive functions: X (no variations in the function prior to and during the treatment), % (4 weeks): 7.1%; Cognitive functions: X (no variations in the function prior to and during the treatment), abs. (4 weeks): 5; Speech functions (items 6b, c, d): no variations, % (4 weeks): 54.8%; Speech functions (items 6b, c, d): no variations, abs. (4 weeks): 23; Speech functions: X (no variations in the function prior to and during the treatment), % (4 weeks): 33.3%; Speech functions: X (no variations in the function prior to and during the treatment), abs. (4 weeks): 14; Cognitive functions (first 5 scale points): no variations, % (8 weeks): 53.6%; Cognitive functions (first 5 scale points): no variations, abs. (8 weeks): 41; Cognitive functions: X (no variations in the function prior to and during the treatment), % (8 weeks): 7.1%; Cognitive functions: X (no variations in the function prior to and during the treatment), abs. (8 weeks): 5; Speech functions (items 6b, c, d): no variations, % (8 weeks): 45.2%; Speech functions (items 6b, c, d): no variations, abs. (8 weeks): 19; Speech functions: X (no variations in the function prior to and during the treatment), % (8 weeks): 30.95%; Speech functions: X (no variations in the function prior to and during the treatment), abs. (8 weeks): 13; mean value of delirium manifestations (4 weeks): 0.8±0.33; mean value of delirium manifestations (8 weeks): 0.7±0.27; mean value of depressive manifestations (after 4 weeks): 0.58±0.18 score; mean value of depressive manifestations (after 8 weeks): 0.58±0.14 score; cognitive functions (Hazegawa's scale and inventor's scale), conclusion (14 patients, especially patients with mild dementia): significant improvement in cognitive functions; mean score of tearfulness (after 4 weeks): 0.2±0.18; Item 1 (orientation in locality, time, immediate surroundings and one's own personality): change during the course of the therapy [1]: +0.11 +/− 0.07 scores; Item 2 (orientation in space): change during the course of the therapy [1]: +0.11 +/− 0.07 scores; Item 3 (memory for the past): change during the course of the therapy [1]: +0.07 +/− 0.07 scores; Item 4 (memory for the present): change during the course of the therapy [1]: 0 +/− 0 scores; Item 5 (life in the past): change during the course of the therapy [1]: +0.14 +/− 0.08 scores; Item 6a (speech): change during the course of the therapy [1]: +0.11 +/− 0.07 scores; Item 6b (difficulty in finding words, and distortion of words): change during the course of the therapy [1]: 0 +/− 0 scores; Item 6g (speech): change during the course of the therapy [1]: −0.07 +/− 0.12 scores; Item 7 (concentration of attention): change during the course of the therapy [1]: 0 +/− 0.5 scores; Item 8b (low spirits): change during the course of the therapy [1]: +0.41 +/− 0.17 scores; Item 9 (delirium): change during the course of the therapy [1]: +0.07 +/− 0.09 scores; Item 13 (irritability): change during the course of the therapy [1]: +0.29 +/− 0.13 scores; Item 14 (anxiety): change during the course of the therapy [1]: −0.04 +/− 0.13 scores; Item 15 (asthenia): change during the course of the therapy [1]: −0.11 +/− 0.09 scores; Item 16 (headaches): change during the course of the therapy [1]: +0.54 +/− 0.21 scores; Item 17 (dizziness): change during the course of the therapy [1]: −0.14 +/− 0.17 scores; Item 18 (tearfulness): change during the course of the therapy [1]: −0.14 +/− 0.14 scores; Item 19 (spontaneous activity): change during the course of the therapy [1]: 0 +/− 0 scores; Item 20 (elementary self-service): change during the course of the therapy [1]: +0.07 +/− 0.07 scores; Item 1 (orientation in locality, time, immediate surroundings and one's own personality): mean value [2]: 1.75 +/− 0.23 scores; Item 2 (orientation in space): mean value [2]: 0.32 +/− 0.15 scores; Item 3 (memory for the past): mean value [2]: 2.29 +/− 0.21 scores; Item 4 (memory for the present): mean value [2]: 2.21 +/− 0.22 scores; Item 5 (life in the past): mean value [2]: 1.75 +/− 0.27 scores; Item 6a (speech): mean value [2]: 0.71 +/− 0.21 scores; Item 6b (difficulty in finding words, and distortion of words): mean value [2]: 0.43 +/− 0.17 scores; Item 6g (speech): mean value [2]: 0.46 +/− 0.16 scores; Item 7 (concentration of attention): mean value [2]: 1.75 +/− 0.26 scores; Item 8b (low spirits): mean value [2]: 0.5 +/− 0.16 scores; Item 9 (delirium): mean value [2]: 0.57 +/− 0.29 scores; Item 13 (irritability): mean value [2]: 0.21 +/− 0.15 scores; Item 14 (anxiety): mean value [2]: 0.29 +/− 0.12 scores; Item 15 (asthenia): mean value [2]: 0.18 +/− 0.1 scores; Item 16 (headaches): mean value [2]: 0.32 +/− 0.21 scores; Item 17 (dizziness): mean value [2]: 0.71 +/− 0.27 scores; Item 18 (tearfulness): mean value [2]: 0.07 +/− 0.07 scores; Item 19 (spontaneous activity): mean value [2]: 1.29 +/− 0.22 scores
